According to patent US20260364030A1, “NOVEL SELECTIVE INHIBITORS OF LYSYL OXIDASES” (Syntara Limited, priority 2022, published 2026):

Columns and labels:
Bovine LOX = target: T1, Bovine LOX (Bos taurus, UniProt P33072); test: LOX inhibition, hydrogen peroxide Amplex Red oxidation assay; type: biochemical; conditions: 2 h incubation with enzyme at 37 °C
T1 sequence (P33072 170-418): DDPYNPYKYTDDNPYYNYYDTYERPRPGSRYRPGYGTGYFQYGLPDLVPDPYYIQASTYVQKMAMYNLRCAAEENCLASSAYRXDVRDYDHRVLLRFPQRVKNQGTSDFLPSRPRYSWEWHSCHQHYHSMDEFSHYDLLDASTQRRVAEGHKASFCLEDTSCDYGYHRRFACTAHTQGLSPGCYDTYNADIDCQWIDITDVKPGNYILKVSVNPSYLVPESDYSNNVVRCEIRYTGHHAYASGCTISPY
Protocol: (§1) LOX and LOXL protein family members can be acquired as recombinant active proteins from commercial sources, or extracted from animal tissues like bovine aorta, tendons, pig skin; or prepared from cell cultures. The inhibitory effects of the compounds of the present invention were tested against the given LOX or LOXL preparation using a method based on the detection of hydrogen peroxide with an Amplex Red oxidation assay [Zhou et al, 1997]. The assay was developed using either 384 or 96 well format. Briefly, in a standard black, clear bottom 384 well plate assay 25 µL of a dilution of any of the isoenzymes and orthologues in 1.2 M urea, 50 mM sodium borate buffer (pH 8.2) were added into each well in the presence of […] and 0.5 mM pargyline (to inhibit SSAO and MAO-B and MAO-A, respectively; not necessary if the enzyme is from a recombinant or purified form). […] of a reaction mixture containing twice the KM concentration of putrescine (Sigma Aldrich, e.g. 20 mM for LOX and LOXL1 or 10 mM for LOXL2 and 4 mM for LOXL3 and LOXL4), 120 µM Amplex Red (Thermo Fisher Scientific) and 1.5 U/mL horseradish peroxidase (Sigma Aldrich) prepared in 1.2 M urea, 50 mM sodium borate buffer (pH 8.2) were then added to the corresponding wells. The above volumes were doubled in the case of 96 wells plate. The fluorescence (RFU) was read every 2.5 min for 30 min at 37 °C, excitation 544 nm and emission 590 (Optima; BMG labtech). The slope/min of the kinetics for each well was calculated using MARS data analysis software (BMG labtech) and this value was used to deduce the IC50 value (Dotmatics). The ability of the inventive compounds to inhibit the amine oxidase activity of LOX and other family members is shown in Table 5.

LOXL2 = target: T2, LOXL2 (Homo sapiens, UniProt Q9Y4K0); test: LOXL2 inhibition, Amplex Red oxidation assay; type: biochemical; conditions: 2 h incubation with enzyme at 37 °C; read-out: Human LOXL2 Activity IC50
T2 sequence (Q9Y4K0 26-774): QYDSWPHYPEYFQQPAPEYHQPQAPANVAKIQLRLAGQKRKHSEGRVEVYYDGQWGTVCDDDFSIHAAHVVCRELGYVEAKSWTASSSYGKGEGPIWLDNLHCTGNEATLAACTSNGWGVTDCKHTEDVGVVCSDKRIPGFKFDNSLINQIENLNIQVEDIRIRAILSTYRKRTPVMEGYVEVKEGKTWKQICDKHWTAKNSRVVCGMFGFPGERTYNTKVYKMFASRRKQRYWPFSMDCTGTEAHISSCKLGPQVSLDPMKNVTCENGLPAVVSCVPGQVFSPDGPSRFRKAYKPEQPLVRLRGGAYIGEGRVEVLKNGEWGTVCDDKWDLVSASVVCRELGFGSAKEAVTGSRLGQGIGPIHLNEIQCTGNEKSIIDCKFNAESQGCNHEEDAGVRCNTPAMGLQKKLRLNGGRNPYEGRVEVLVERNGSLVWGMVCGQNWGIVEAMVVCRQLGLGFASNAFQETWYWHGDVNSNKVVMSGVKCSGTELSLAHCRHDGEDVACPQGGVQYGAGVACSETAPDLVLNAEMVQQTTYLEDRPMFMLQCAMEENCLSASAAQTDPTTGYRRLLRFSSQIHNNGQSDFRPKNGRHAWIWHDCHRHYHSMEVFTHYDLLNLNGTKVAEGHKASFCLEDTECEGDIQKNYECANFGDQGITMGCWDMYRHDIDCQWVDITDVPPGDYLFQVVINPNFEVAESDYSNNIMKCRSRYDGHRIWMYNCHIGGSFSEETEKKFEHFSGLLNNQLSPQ
Protocol: as §1

IC50 (Bovine LOX) [µM]	IC50 (LOXL2) [µM]	Compound
< 2	< 2	N#Cc1cccc(S(=O)(=O)C/C(=C/F)CN)c1 [Compound 2, (E)-3-((2-(aminomethyl)-3-fluoroallyl)sulfonyl)benzonitrile]
< 5	< 2	Cc1ccccc1S(=O)(=O)C/C(=C/F)CN [Compound 3, (E)-3-fluoro-2-((o-tolylsulfonyl)methyl)prop-2-en-1-amine]
< 5	< 2	Cc1ccc(S(=O)(=O)C/C(=C/F)CN)cc1 [Compound 4, (E)-3-fluoro-2-(tosylmethyl)prop-2-en-1-amine]
< 2	< 2	NC/C(=C\F)CS(=O)(=O)c1cccc(F)c1 [Compound 5, (E)-3-fluoro-2-(((3-fluorophenyl)sulfonyl)methyl)prop-2-en-1-amine]
< 5	< 5	NC/C(=C\F)CS(=O)(=O)c1ccccc1Cl [Compound 6, (E)-2-(((2-chlorophenyl)sulfonyl)methyl)-3-fluoroprop-2-en-1-amine]
< 10	< 2	NC/C(=C\F)CS(=O)(=O)c1cccc2cccnc12 [Compound 7, (E)-3-fluoro-2-((quinolin-8-ylsulfonyl)methyl)prop-2-en-1-amine]
< 2	< 2	Cc1ccc(S(=O)(=O)C/C(=C/F)CN)cc1Cl [Compound 8, (E)-2-(((3-chloro-4-methylphenyl)sulfonyl)methyl)-3-fluoroprop-2-en-1-amine]
< 2	< 2	Cc1ccc(S(=O)(=O)C/C(=C/F)CN)cc1C [Compound 9, (E)-2-(((3,4-dimethylphenyl)sulfonyl)methyl)-3-fluoroprop-2-en-1-amine]
< 2	< 2	NC/C(=C\F)CS(=O)(=O)c1cccc(C(F)(F)F)c1 [Compound 10, (E)-3-fluoro-2-(((3-(trifluoromethyl)phenyl)sulfonyl)methyl)prop-2-en-1-amine]
< 2	< 2	CC(C)c1cccc(S(=O)(=O)C/C(=C/F)CN)c1 [Compound 11, (E)-3-fluoro-2-(((3-isopropylphenyl)sulfonyl)methyl)prop-2-en-1-amine]
< 5	< 5	N#Cc1ccccc1S(=O)(=O)C/C(=C/F)CN [Compound 12, (E)-2-((2-(aminomethyl)-3-fluoroallyl)sulfonyl)benzonitrile]
< 2	< 2	NC/C(=C\F)CS(=O)(=O)c1cccc([N+](=O)[O-])c1 [Compound 13, (E)-3-fluoro-2-(((3-nitrophenyl)sulfonyl)methyl)prop-2-en-1-amine]
< 2	< 2	NC/C(=C\F)CS(=O)(=O)c1cccc(S(=O)(=O)c2ccccc2)c1 [Compound 14, (E)-3-fluoro-2-(((3-(phenylsulfonyl)phenyl)sulfonyl)methyl)prop-2-en-1-amine]
< 2	< 2	NC/C(=C\F)CS(=O)(=O)c1cccc(Br)c1 [Compound 15, (E)-2-(((3-bromophenyl)sulfonyl)methyl)-3-fluoroprop-2-en-1-amine]
< 2	< 2	NC/C(=C\F)CS(=O)(=O)c1cccc(-c2nccs2)c1 [Compound 16, (E)-3-fluoro-2-(((3-(thiazol-2-yl)phenyl)sulfonyl)methyl)prop-2-en-1-amine]
< 2	< 2	Cc1ncc(-c2cccc(S(=O)(=O)C/C(=C/F)CN)c2)s1 [Compound 17, (E)-3-fluoro-2-(((3-(2-methylthiazol-5-yl)phenyl)sulfonyl)methyl)prop-2-en-1-amine]

IC50 (Bovine LOX) [µM]	IC50 (LOXL2) [µM]	Compound
< 2	< 2	Cc1ccn(-c2cccc(S(=O)(=O)C/C(=C/F)CN)c2)n1 [Compound 18, (E)-3-fluoro-2-(((3-(3-methyl-1H-pyrazol-1-yl)phenyl)sulfonyl)methyl)prop-2-en-1-amine]
< 2	< 2	NC/C(=C\F)CS(=O)(=O)c1cccc(Cl)c1 [Compound 19, (E)-2-(((3-chlorophenyl)sulfonyl)methyl)-3-fluoroprop-2-en-1-amine]
< 2	< 2	Cc1cccc(S(=O)(=O)C/C(=C/F)CN)c1 [Compound 20, (E)-3-fluoro-2-((m-tolylsulfonyl)methyl)prop-2-en-1-amine]
< 2	< 2	CS(=O)(=O)c1ccc(S(=O)(=O)C/C(=C/F)CN)cc1 [Compound 21, (E)-3-fluoro-2-(((4-(methylsulfonyl)phenyl)sulfonyl)methyl)prop-2-en-1-amine]
< 2	< 2	NC/C(=C\F)CS(=O)(=O)c1ccc2ccccc2c1 [Compound 22, (E)-3-fluoro-2-((naphthalen-2-ylsulfonyl)methyl)prop-2-en-1-amine]
< 2	< 2	CS(=O)(=O)c1cccc(S(=O)(=O)C/C(=C/F)CN)c1 [Compound 23, (E)-3-fluoro-2-(((3-(methylsulfonyl)phenyl)sulfonyl)methyl)prop-2-en-1-amine]
< 2	< 2	COc1cccc(S(=O)(=O)C/C(=C/F)CN)c1 [Compound 24, (E)-3-fluoro-2-(((3-methoxyphenyl)sulfonyl)methyl)prop-2-en-1-amine]
< 2	< 2	NC/C(=C\F)CS(=O)(=O)c1ccc2c(c1)OCCO2 [Compound 25, (E)-2-(((2,3-dihydrobenzo[b][1,4]dioxin-6-yl)sulfonyl)methyl)-3-fluoroprop-2-en-1-amine]
< 10	< 5	NC/C(=C\F)CS(=O)(=O)c1cccc(C(=O)O)c1 [Compound 26, (E)-3-((2-(aminomethyl)-3-fluoroallyl)sulfonyl)benzoic acid]
< 2	< 2	NC/C(=C\F)CS(=O)(=O)c1cccc(C(N)=O)c1 [Compound 27, (E)-3-((2-(aminomethyl)-3-fluoroallyl)sulfonyl)benzamide]
< 5	< 2	N#Cc1ccc(S(=O)(=O)C/C(=C/F)CN)cc1 [Compound 28, (E)-4-((2-(aminomethyl)-3-fluoroallyl)sulfonyl)benzonitrile]
< 2	< 2	Cc1ccc(S(=O)(=O)C/C(=C/F)CN)cc1C#N [Compound 29, (E)-5-((2-(aminomethyl)-3-fluoroallyl)sulfonyl)-2-methylbenzonitrile]
< 5	< 5	[2H]c1c([2H])c([2H])c(S(=O)(=O)C/C(=C/F)CN)c([2H])c1[2H] [Compound 30, (E)-3-fluoro-2-(((phenyl-d5)sulfonyl)methyl)prop-2-en-1-amine]
< 10	< 10	NC/C(=C\F)CS(=O)(=O)c1ccc(C(=O)O)cc1 [Compound 31, (E)-4-((2-(aminomethyl)-3-fluoroallyl)sulfonyl)benzoic acid]
< 2	< 2	NC/C(=C\F)CS(=O)(=O)c1cc(Cl)ccc1Cl [Compound 32, (E)-2-(((2,5-dichlorophenyl)sulfonyl)methyl)-3-fluoroprop-2-en-1-amine]
< 5		NC/C(=C\F)CS(=O)(=O)c1cccc(-n2nccn2)c1 [Compound 34, (E)-2-(((3-(2H-1,2,3-triazol-2-yl)phenyl)sulfonyl)methyl)-3-fluoroprop-2-en-1-amine]
